# Tested on: Patients with LHON
# Assay: Example 2: 12-month double blind, placebo controlled study of acetyl L-carnitine, visual acuity
# Format: in vivo, human
# Conditions: for Visual Acuity Change, Diff / Visual Acuity Recovery, Diff: ALC 2 g/day orally vs placebo
# From the text: 30 Patients with LHON were enrolled. To be eligible, participants were required to meet the following inclusion criteria: both sexes, age ≧20 years and ≦60 years, diagnosis of Leber's optic neuropathy assessed by the presence of at least one of the three most common LHON pathogenic mutations (11778/ND4, 3460/ND1, 14484/ND6), and duration of disease greater than 2 years.
# The study treatment trial was 12-month, double blind, placebo controlled with participants randomized to receive acetyl L-carnitine (2 g/day orally) or placebo.
# The primary efficacy end point for the study was the best recovery in visual acuity in either eye measured by change in logMAR (logarithm of Minimal Angle of Resolution) in study eyes comparing the acetyl-L-carnitine treatment group with the placebo treatment control group 6 and 12 months after enrolment. Secondary efficacy outcome was the patients' best visual acuity at 6 and 12 months compared to best visual acuity at baseline.
structure (smiles),measurement,setting,value
"CC(=O)O[C@H](CC(=O)[O-])C[N+](C)(C)C [ALC, acetyl-L-carnitine]","Visual Acuity Change, Diff","T6 (6 months), p < 0.05",Diff = 14 letters
same,"Visual Acuity Recovery, Diff","T6 (6 months), p < 0.05",Diff = 10 letters
same,"Visual Acuity Change, Diff","T12 (12 months), p < 0.01",Diff = 18 letters
same,"Visual Acuity Recovery, Diff","T12 (12 months), p < 0.01",Diff = 12 letters
same,improvement of visual acuity recovery (in words),"vs placebo, after 6 months (T6) and 12 months (T12)",significant difference in improvement
same,visual acuity of eyes (in words),"vs placebo, both time points T6 and T12",significantly improved
